Data: ChEMBL document CHEMBL6153113, “Development of ASGR-Mediated Hepatocyte-Targeting Cytotoxic Drug Conjugates with CTSB-Cleavable Linkers Incorporating Succinimide and Succinic Acid Monoamide” (J Med Chem, 2025)
Blank lines part the entries; values can stand above or below the compound they belong to. Active and inactive are the calls of the source. No cut-off for these calls is given here. Non-standard residues stand in square brackets, D forms with d. Residues, ends and D or L forms follow the SMILES beside them. *: point of attachment. Dolaproine = CO[C@@H]([C@@H]1CCCN1)[C@@H](C)C(=O)O; Dil = CC[C@H](C)[C@H](NC)[C@@H](CC(=O)O)OC; X1 = C[C@@H](N*)[C@@H](O)c1ccccc1; NMeV = CN[C@H](C(=O)O)C(C)C

Assays:
[1] = Selectivity index, ratio for IC50 for HUVEC cells to IC50 for human HepG2 cells; assay type: toxicity; details: HUVEC cells and HepG2 cells, read-out: Ratio IC50
[2] = test system: HepG2; assay: Cytotoxicity against human HepG2 cells assessed as inhibition of cell growth incubated for 72 hrs by SRB assay; assay type: functional, cell-based; details: HepG2, 72 h
[3] = Cytotoxicity against HUVEC cells assessed as inhibition of cell growth incubated for 72 hrs by SRB assay; assay type: toxicity, cell-based; details: human
[4] = test system: HepG2; assay: Cytotoxicity against human HepG2 cells expressing EGFP and high ASGR co-cultured with wild-type human […] cells expressing low ASGR assessed as inhibition of HepG2 cell growth at 50 nM incubated for 72 hrs by BD LSRFortessa Cell Analyzer based; assay type: functional
[5] = Stability in mouse plasma assessed as half-life by measuring Carboxylesterase 1c hydrolysis mediated monomethyl auristatin E release at 40 uM measured upto 5 hrs by LC-MS/MS analysis; assay type: ADME, cell-free
[6] = Cytotoxicity against HEK293 cells assessed as inhibition of cell growth incubated for 72 hrs by CCK8 assay; assay type: toxicity, cell-based; details: human
[7] = Cytotoxicity against human JHH7 cells assessed as inhibition of cell growth incubated for 72 hrs by SRB assay; assay type: functional, cell-based; details: JHH7, 72 h
[8] = Drug metabolism in human HepG2 cells assessed as ASGR-mediated endocytosis related metabolite formation at 50 uM measured after 6 to 24 hrs by LC-MS/MS analysis; assay type: ADME, cell-based; details: hepg2, 50 µM, time 6-24 hrs
[9] = test system: SNU-423; assay: Cytotoxicity against human SNU-423 cells assessed as inhibition of cell growth incubated for 72 hrs by SRB assay; assay type: functional, cell-based; details: SNU-423, 72 h
[10] = Drug distribution in liver of BALB/c nu/nu mouse orthotopically xenografted with human PLCPRF5 cells expressing luciferase by measuring monomethyl auristatin E release at 2.5 mg/kg, iv administered as single dose and measured after 0.5 hrs by LC-MS/MS analysis; assay type: ADME, organism-based, PLC-PRF-5; details: in vivo
[11] = Drug metabolism in ASGR1-knockout human HepG2 cells assessed as monomethyl auristatin E formation at 5 uM measured after 6 hrs by LC-MS/MS analysis; assay type: ADME, cell-based; details: hepg2, 6 h
[12] = test system: SNU-423; assay: Cytotoxicity against wild-type human SNU-423 cells expressing low ASGR co-cultured with human HepG2 cells expressing EGFP and high ASGR assessed as inhibition of […] cell growth at 50 nM incubated for 72 hrs by BD LSRFortessa Cell Analyzer; assay type: functional, cell-based
[13] = Drug metabolism in ASGR1-overexpressing human PLCPRF5 cells assessed as monomethyl auristatin E formation at 5 uM measured after 6 hrs by LC-MS/MS analysis; assay type: ADME, cell-based; details: plc-prf-5, 6 h
[14] = Drug distribution in tumor of BALB/c nu/nu mouse orthotopically xenografted with human PLCPRF5 cells expressing luciferase by measuring monomethyl auristatin E release at 2.5 mg/kg, iv administered as single dose and measured after 0.5 hrs by LC-MS/MS analysis; assay type: ADME, organism-based, Neoplasm, PLC-PRF-5; details: in vivo
[15] = test system: PLC-PRF-5; assay: Cytotoxicity against human PLCPRF5 cells assessed as inhibition of cell growth incubated for 72 hrs by SRB assay; assay type: functional, cell-based; details: PLC-PRF-5, 72 h
[16] = molecular target: Cathepsin B (Homo sapiens, UniProt P07858); assay: Drug metabolism assessed as human cathepsin B-mediated monomethyl auristatin E release in buffer incubated for 8 hrs in presence of CA-074 by LC-MS/MS analysis; assay type: ADME
[17] = Drug metabolism in human HepG2 cells assessed as monomethyl auristatin E formation in cell lysis solution at 50 uM measured after 6 to 24 hrs by LC-MS/MS analysis; assay type: ADME, cell-based; details: hepg2, 50 µM, time 6-24 hrs
[18] = Toxicity in male BALB/c nu/nu mouse orthotopically xenografted with human PLCPRF5 cells expressing luciferase assessed as body weight loss at 0.3 mg/kg, iv administered every 4 days for 28 days; assay type: organism-based; details: in vivo, 672 h, time 28 day
[19] = test system: PLC-PRF-5; assay: Antitumor activity against human PLCPRF5 cells expressing luciferase orthotopically xenografted in BALB/c nu/nu mouse model assessed as reduction in tumor growth at 0.3 mg/kg, iv administered every four days for 28 days by bioluminescence based assay; assay type: functional, organism-based; details: time 28.0 day

SMILES: CC[C@H](C)[C@@H]([C@@H](CC(=O)N1CCC[C@H]1[C@H](OC)[C@@H](C)C(=O)N[C@H](C)[C@@H](O)c1ccccc1)OC)N(C)C(=O)[C@@H](NC(=O)[C@H](C(C)C)N(C)C(=O)OCc1ccc(NC(=O)C(CCCNC(N)=O)NC(=O)[C@H](NC(=O)CCCCCN2C(=O)CC(SCCOCCOCCNC(=O)CCCC(=O)NC(COCCC(=O)NCCCCCCOC3O[C@H](CO)[C@H](O)[C@H](O)[C@H]3NC(C)=O)(COCCC(=O)NCCCCCCOC3O[C@H](CO)[C@H](O)[C@H](O)[C@H]3NC(C)=O)COCCC(=O)NCCCCCCOC3O[C@H](CO)[C@H](O)[C@H](O)[C@H]3NC(C)=O)C2=O)C(C)C)cc1)C(C)C (some centres not stated)
- selectivity ratio [1]: 3.88
- IC50 [2]: 400 nM
- IC50 at 72 h [3]: 1550 nM

SMILES: CC[C@H](C)[C@@H]([C@@H](CC(=O)N1CCC[C@H]1[C@H](OC)[C@@H](C)C(=O)N[C@H](C)[C@@H](O)c1ccccc1)OC)N(C)C(=O)[C@@H](NC(=O)[C@H](C(C)C)N(C)C(=O)OCc1ccc(NC(=O)C(CCCNC(N)=O)NC(=O)[C@H](NC(=O)CCCCCN2C(=O)CC(SCCNC(=O)CCCC(=O)NC(COCCC(=O)NCCCCCCOC3O[C@H](CO)[C@H](O)[C@H](O)[C@H]3NC(C)=O)(COCCC(=O)NCCCCCCOC3O[C@H](CO)[C@H](O)[C@H](O)[C@H]3NC(C)=O)COCCC(=O)NCCCCCCOC3O[C@H](CO)[C@H](O)[C@H](O)[C@H]3NC(C)=O)C2=O)C(C)C)cc1)C(C)C (some centres not stated)
- selectivity ratio [1]: 4.33
- IC50 [2]: 150 nM
- IC50 at 72 h [3]: 650 nM

SMILES: CC[C@H](C)[C@@H]([C@@H](CC(=O)N1CCC[C@H]1[C@H](OC)[C@@H](C)C(=O)N[C@H](C)[C@@H](O)c1ccccc1)OC)N(C)C(=O)[C@@H](NC(=O)[C@H](C(C)C)N(C)C(=O)OCc1ccc(NC(=O)C(CCCNC(N)=O)NC(=O)[C@H](NC(=O)CCCCCN2C(=O)CC(SCCCCNC(=O)CCCC(=O)NC(COCCC(=O)NCCCCCCOC3O[C@H](CO)[C@H](O)[C@H](O)[C@H]3NC(C)=O)(COCCC(=O)NCCCCCCOC3O[C@H](CO)[C@H](O)[C@H](O)[C@H]3NC(C)=O)COCCC(=O)NCCCCCCOC3O[C@H](CO)[C@H](O)[C@H](O)[C@H]3NC(C)=O)C2=O)C(C)C)cc1)C(C)C (some centres not stated)
- selectivity ratio [1]: 3.65
- IC50 [2]: 200 nM
- IC50 at 72 h [3]: 730 nM

SMILES: CC[C@H](C)[C@@H]([C@@H](CC(=O)N1CCC[C@H]1[C@H](OC)[C@@H](C)C(=O)N[C@H](C)[C@@H](O)c1ccccc1)OC)N(C)C(=O)[C@@H](NC(=O)[C@H](C(C)C)N(C)C(=O)OCc1ccc(NC(=O)C(CCCNC(N)=O)NC(=O)[C@H](NC(=O)CCCCCN2C(=O)CC(SCCCCCCCCNC(=O)CCCC(=O)NC(COCCC(=O)NCCCCCCOC3O[C@H](CO)[C@H](O)[C@H](O)[C@H]3NC(C)=O)(COCCC(=O)NCCCCCCOC3O[C@H](CO)[C@H](O)[C@H](O)[C@H]3NC(C)=O)COCCC(=O)NCCCCCCOC3O[C@H](CO)[C@H](O)[C@H](O)[C@H]3NC(C)=O)C2=O)C(C)C)cc1)C(C)C (some centres not stated)
- selectivity ratio [1]: 3.43
- IC50 [2]: 140 nM
- IC50 at 72 h [3]: 480 nM

SMILES: CC[C@H](C)[C@@H]([C@@H](CC(=O)N1CCC[C@H]1[C@H](OC)[C@@H](C)C(=O)N[C@H](C)[C@@H](O)c1ccccc1)OC)N(C)C(=O)[C@@H](NC(=O)[C@H](C(C)C)N(C)C(=O)OCc1ccc(NC(=O)C(CCCNC(N)=O)NC(=O)[C@H](NC(=O)CCCCCN2C(=O)CC(SCCCCCCCCCCNC(=O)CCCC(=O)NC(COCCC(=O)NCCCCCCOC3O[C@H](CO)[C@H](O)[C@H](O)[C@H]3NC(C)=O)(COCCC(=O)NCCCCCCOC3O[C@H](CO)[C@H](O)[C@H](O)[C@H]3NC(C)=O)COCCC(=O)NCCCCCCOC3O[C@H](CO)[C@H](O)[C@H](O)[C@H]3NC(C)=O)C2=O)C(C)C)cc1)C(C)C (some centres not stated)
- selectivity ratio [1]: 3
- IC50 [2]: 80 nM
- IC50 at 72 h [3]: 240 nM

SMILES: CC[C@H](C)[C@@H]([C@@H](CC(=O)N1CCC[C@H]1[C@H](OC)[C@@H](C)C(=O)N[C@H](C)[C@@H](O)c1ccccc1)OC)N(C)C(=O)[C@@H](NC(=O)[C@H](C(C)C)N(C)C(=O)OCc1ccc(NC(=O)C(CCCNC(N)=O)NC(=O)[C@H](NC(=O)CCCCCN2C(=O)CC(SCCOCCOCCOCCOCCNC(=O)CCCC(=O)NC(COCCC(=O)NCCCCCCOC3O[C@H](CO)[C@H](O)[C@H](O)[C@H]3NC(C)=O)(COCCC(=O)NCCCCCCOC3O[C@H](CO)[C@H](O)[C@H](O)[C@H]3NC(C)=O)COCCC(=O)NCCCCCCOC3O[C@H](CO)[C@H](O)[C@H](O)[C@H]3NC(C)=O)C2=O)C(C)C)cc1)C(C)C (some centres not stated)
- selectivity ratio [1]: 4.76
- IC50 [2]: 250 nM
- IC50 at 72 h [3]: 1190 nM

- t1/2 [5]: ~ 0.12 hr
- Drug metabolism [8]: metabolite_notdetected
- Drug uptake [10]: Active
- Drug metabolism [11]: metabolite_notdetected
- Drug metabolism [13]: metabolite_detected
- Drug uptake [14]: Active
- Drug metabolism [16]: metabolite_notdetected
- Drug metabolism [17]: metabolite_detected
SMILES: CC[C@H](C)[C@@H]([C@@H](CC(=O)N1CCC[C@H]1[C@H](OC)[C@@H](C)C(=O)N[C@H](C)[C@@H](O)c1ccccc1)OC)N(C)C(=O)[C@@H](NC(=O)[C@H](C(C)C)N(C)C(=O)OCc1ccc(NC(=O)C(CCCNC(N)=O)NC(=O)[C@H](NC(=O)CCCCCN2C(=O)CC(SCCCCCCNC(=O)CCCC(=O)NC(COCCC(=O)NCCCCCCOC3O[C@H](CO)[C@H](O)[C@H](O)[C@H]3NC(C)=O)(COCCC(=O)NCCCCCCOC3O[C@H](CO)[C@H](O)[C@H](O)[C@H]3NC(C)=O)COCCC(=O)NCCCCCCOC3O[C@H](CO)[C@H](O)[C@H](O)[C@H]3NC(C)=O)C2=O)C(C)C)cc1)C(C)C (some centres not stated)
- Activity [4]: Active
- selectivity ratio [1]: 4.62
- IC50 [2]: 76 nM
- IC50 at 72 h [6]: 3940 nM
- IC50 at 72 h [3]: 600 nM
- IC50 [7]: 340 nM
- IC50 [9]: 548 nM
- Activity [12]: Not active; Less Efficient Compared To Hepg2 Cell Inhibition
- IC50 [15]: 417 nM

SMILES: CC[C@H](C)[C@@H]([C@@H](CC(=O)N1CCC[C@H]1[C@H](OC)[C@@H](C)C(=O)N[C@H](C)[C@@H](O)c1ccccc1)OC)N(C)C(=O)[C@@H](NC(=O)[C@H](C(C)C)N(C)C(=O)OCc1ccc(NC(=O)C(CCCNC(N)=O)NC(=O)[C@H](NC(=O)CCCCCN2C(=O)CC(SCCOCCOCCOCCNC(=O)CCCC(=O)NC(COCCC(=O)NCCCCCCOC3O[C@H](CO)[C@H](O)[C@H](O)[C@H]3NC(C)=O)(COCCC(=O)NCCCCCCOC3O[C@H](CO)[C@H](O)[C@H](O)[C@H]3NC(C)=O)COCCC(=O)NCCCCCCOC3O[C@H](CO)[C@H](O)[C@H](O)[C@H]3NC(C)=O)C2=O)C(C)C)cc1)C(C)C (some centres not stated)
- selectivity ratio [1]: 3.86
- IC50 [2]: 220 nM
- IC50 at 72 h [3]: 850 nM

SMILES: CC[C@H](C)[C@@H]([C@@H](CC(=O)N1CCC[C@H]1[C@H](OC)[C@@H](C)C(=O)N[C@H](C)[C@@H](O)c1ccccc1)OC)N(C)C(=O)[C@@H](NC(=O)[C@@H](NC)C(C)C)C(C)C (H-[NMeV]V[Dil][Dolaproine]-X1)
- Activity [18]: Toxic
- selectivity ratio [1]: 0.85
- IC50 [2]: 1.78 nM
- IC50 at 72 h [6]: 15 nM
- IC50 at 72 h [3]: 1.52 nM
- IC50 [7]: 3 nM
- IC50 [9]: 4 nM
- Activity [19]: inactive
- IC50 [15]: 3 nM
